Values after ≈ are worked out from the molar mass of the structure shown.
Assays:
Type in all cases: functional
Escherichia coli [1] = test: Antibacterial activity against Escherichia coli ATCC 25922 after 24 hrs by micro broth dilution method; details: ATCC 25922, 24 h
Pseudomonas aeruginosa [2] = test: Antibacterial activity against drug-resistant Pseudomonas aeruginosa after 24 hrs by micro broth dilution method
Candida albicans [3] = test: Antifungal activity against Candida albicans ATCC 90023 after 24 hrs by micro broth dilution method; details: ATCC 90023, 24 h
Candida tropicalis = test: Antifungal activity against Candida tropicalis after 24 hrs by micro broth dilution method
Staphylococcus aureus [4] = test: Antibacterial activity against Staphylococcus aureus ATCC 25923 after 24 hrs by micro broth dilution method; details: ATCC 25923, 24 h
Staphylococcus aureus [5] = test: Antibacterial activity against Staphylococcus aureus ATCC 29213 after 24 hrs by micro broth dilution method; details: ATCC 29213, 24 h
Escherichia coli [6] = test: Antibacterial activity against drug-resistant Escherichia coli after 24 hrs by micro broth dilution method
Staphylococcus aureus [7] = test: Antibacterial activity against methicillin-resistant Staphylococcus aureus N315 after 24 hrs by micro broth dilution method; details: N315, 24 h
Staphylococcus aureus [8] = test: Antibacterial activity against drug-resistant Staphylococcus aureus after 24 hrs by micro broth dilution method
Pseudomonas aeruginosa [9] = test: Antibacterial activity against Pseudomonas aeruginosa ATCC 27853 after 24 hrs by micro broth dilution method; details: ATCC 27853, 24 h
Candida albicans [10] = test: Antifungal activity against drug-resistant Candida albicans after 24 hrs by micro broth dilution method
Pseudomonas aeruginosa [11] = test: Potency index, ratio of norfloxacin MIC to compound MIC for Pseudomonas aeruginosa ATCC 27853
Pseudomonas aeruginosa [12] = test: Potency index, ratio of metronidazole MIC to compound MIC for Pseudomonas aeruginosa ATCC 27853

Row | Compound | MIC (Escherichia coli [1]) [µM] | MIC (Pseudomonas aeruginosa [2]) [µM] | MIC (Candida albicans [3]) [µg/mL] | MIC (Candida tropicalis) [µg/mL] | MIC (Staphylococcus aureus [4]) [µM] | MIC (Staphylococcus aureus [5]) [µM] | MIC (Escherichia coli [6]) [µM] | MIC (Staphylococcus aureus [7]) [µM] | MIC (Staphylococcus aureus [8]) [µM] | MIC (Pseudomonas aeruginosa [9]) [µM] | MIC (Candida albicans [10]) [µg/mL] | Ratio (Pseudomonas aeruginosa [11]) | Ratio (Pseudomonas aeruginosa [12])
1 | CC(=O)/C(=C\c1ccc(C)cc1)n1c([N+](=O)[O-])cnc1C | 56 (≈ 16 µg/mL) | 1790 (≈ 511 µg/mL) | 256 (≈ 897 µM) | 256 (≈ 897 µM) | 900 (≈ 257 µg/mL) | 450 (≈ 128 µg/mL) | 900 (≈ 257 µg/mL) | 1790 (≈ 511 µg/mL) | 220 (≈ 62.8 µg/mL) | 450 (≈ 128 µg/mL) | 512 (≈ 1790 µM) | 4 - 16 | 
2 | CCn1c2ccccc2c2cc(/C=C(\C(C)=O)n3c([N+](=O)[O-])cnc3C)ccc21 | 1640 (≈ 637 µg/mL) | 1640 (≈ 637 µg/mL) | 256 (≈ 659 µM) | 256 (≈ 659 µM) | 820 (≈ 319 µg/mL) | 1640 (≈ 637 µg/mL) | 1640 (≈ 637 µg/mL) | 1640 (≈ 637 µg/mL) | 820 (≈ 319 µg/mL) | 1640 (≈ 637 µg/mL) | 512 (≈ 1320 µM) |  | 
3 | Cc1ncc([N+](=O)[O-])n1/C(=C/c1ccc(Cl)cc1Cl)C(C)O (stereo not given) | 1500 (≈ 513 µg/mL) | 1500 (≈ 513 µg/mL) | 64 (≈ 187 µM) | 256 (≈ 748 µM) | 1500 (≈ 513 µg/mL) | 1500 (≈ 513 µg/mL) | 1500 (≈ 513 µg/mL) | 1500 (≈ 513 µg/mL) | 1500 (≈ 513 µg/mL) | 750 (≈ 257 µg/mL) | 512 (≈ 1500 µM) |  | 
4 | CCn1cc(C(=O)O)c(=O)c2cc(F)c(N3CCNCC3)cc21 [NORFLOXACIN] | 50 (≈ 16 µg/mL) | 1600 (≈ 511 µg/mL) |  |  | 100 (≈ 31.9 µg/mL) | 25 (≈ 7.98 µg/mL) | 1600 (≈ 511 µg/mL) | 1600 (≈ 511 µg/mL) | 200 (≈ 63.9 µg/mL) | 1600 (≈ 511 µg/mL) |  |  | 
5 | COc1cc(/C=C(\C(C)=O)n2c([N+](=O)[O-])cnc2C)ccc1O | 100 (≈ 31.7 µg/mL) | 800 (≈ 254 µg/mL) | 128 (≈ 403 µM) | 256 (≈ 807 µM) | 400 (≈ 127 µg/mL) | 1600 (≈ 508 µg/mL) | 800 (≈ 254 µg/mL) | 1600 (≈ 508 µg/mL) | 1600 (≈ 508 µg/mL) | 400 (≈ 127 µg/mL) | 256 (≈ 807 µM) | 4 - 16 | 
6 | Cc1ncc([N+](=O)[O-])n1/C(=C/c1ccc(Cl)cc1)C(C)O (stereo not given) | 1670 (≈ 514 µg/mL) | 1670 (≈ 514 µg/mL) | 16 (≈ 52 µM) | 256 (≈ 832 µM) | 1670 (≈ 514 µg/mL) | 830 (≈ 255 µg/mL) | 1670 (≈ 514 µg/mL) | 1670 (≈ 514 µg/mL) | 830 (≈ 255 µg/mL) | 410 (≈ 126 µg/mL) | 512 (≈ 1660 µM) |  | 
7 | CC(=O)/C(=C\c1ccc(Cl)cc1Cl)n1c([N+](=O)[O-])cnc1C | 1650 (≈ 561 µg/mL) | 1650 (≈ 561 µg/mL) | 128 (≈ 376 µM) | 512 (≈ 1510 µM) | 830 (≈ 282 µg/mL) | 1650 (≈ 561 µg/mL) | 1650 (≈ 561 µg/mL) | 1650 (≈ 561 µg/mL) | 1650 (≈ 561 µg/mL) | 830 (≈ 282 µg/mL) | 512 (≈ 1510 µM) |  | 
8 | Cc1ncc([N+](=O)[O-])n1/C(=C/c1ccccc1Cl)C(C)O (stereo not given) | 210 (≈ 64.6 µg/mL) | 1670 (≈ 514 µg/mL) | 32 (≈ 104 µM) | 512 (≈ 1660 µM) | 1670 (≈ 514 µg/mL) | 1670 (≈ 514 µg/mL) | 1670 (≈ 514 µg/mL) | 1670 (≈ 514 µg/mL) | 1670 (≈ 514 µg/mL) | 830 (≈ 255 µg/mL) | 512 (≈ 1660 µM) |  | 
9 | Cc1ccc(/C=C(\C(C)O)n2c([N+](=O)[O-])cnc2C)cc1 (stereo not given) | 440 (≈ 126 µg/mL) | 890 (≈ 256 µg/mL) | 64 (≈ 223 µM) | 128 (≈ 445 µM) | 890 (≈ 256 µg/mL) | 1780 (≈ 511 µg/mL) | 1780 (≈ 511 µg/mL) | 1780 (≈ 511 µg/mL) | 1780 (≈ 511 µg/mL) | 440 (≈ 126 µg/mL) | 512 (≈ 1780 µM) | 4 | 7
10 | CC(=O)/C(=C\c1ccccc1Cl)n1c([N+](=O)[O-])cnc1C | 410 (≈ 125 µg/mL) | 830 (≈ 254 µg/mL) | 32 (≈ 105 µM) | 64 (≈ 209 µM) | 820 (≈ 251 µg/mL) | 820 (≈ 251 µg/mL) | 1640 (≈ 501 µg/mL) | 1640 (≈ 501 µg/mL) | 1640 (≈ 501 µg/mL) | 830 (≈ 254 µg/mL) | 512 (≈ 1670 µM) |  | 
11 | CC(=O)/C(=C\c1ccc(N(C)C)cc1)n1c([N+](=O)[O-])cnc1C | 810 (≈ 255 µg/mL) | 1620 (≈ 509 µg/mL) | 128 (≈ 407 µM) | 256 (≈ 814 µM) | 1620 (≈ 509 µg/mL) | 410 (≈ 129 µg/mL) | 810 (≈ 255 µg/mL) | 1620 (≈ 509 µg/mL) | 1620 (≈ 509 µg/mL) | 410 (≈ 129 µg/mL) | 512 (≈ 1630 µM) | 4 - 16 | 
12 | CC(=O)/C(=C\c1c[nH]c2ccccc12)n1c([N+](=O)[O-])cnc1C | 420 (≈ 130 µg/mL) | 420 (≈ 130 µg/mL) | 512 (≈ 1650 µM) | 512 (≈ 1650 µM) | 830 (≈ 258 µg/mL) | 830 (≈ 258 µg/mL) | 1650 (≈ 512 µg/mL) | 830 (≈ 258 µg/mL) | 1650 (≈ 512 µg/mL) | 420 (≈ 130 µg/mL) | 512 (≈ 1650 µM) | 4 - 16 | 
